Results reported in patent US5498710A, “Alkyl ether analogues of benzoporphyrin derivatives” (Health Research, Inc., priority 1994, dated 1996).
“Also recorded” adds a separate entry of the source.

Columns and labels:
SMT-F tumor [1] = assay: In vivo antitumor (photodynamic) activity, SMT-F tumors in DBA/2 mice; design: species or system DBA/2 Ha-DD mouse; conditions: for antitumor / photosensitizing activity: 1.0 mg/kg, light 3 h post i.v. injection where stated; for in vivo photosensitizing efficacy / antitumor activity compared with BPD: mice, compared with BPD (mixture of 21 and 22); for tumorcidal activity: similar doses and treatment conditions; for Tumor response (nonpalpable tumor), 1-2 d / Tumor response (nonpalpable tumor), 7 d / Tumor response (nonpalpable tumor), 30 d: 1.0 mg/kg i.v., light 3 h after injection; for Tumor response (nonpalpable tumor), 1-2 d: day 1-2; for Tumor response (nonpalpable tumor), 7 d: day 7; for Tumor response (nonpalpable tumor), 30 d: day 30
Procedure: Tumor Response and Foot Response Experiments: For tumor response experiments (see Table 3), a 1mm^3 piece of SMT-F tumor from a donor DBA/2 Ha-DD mouse was implanted subcutaneously with a trocar into the axilla of a 5-7 week old female DBA/2 Ha-DD mouse. When the tumor had grown to about 4mm diameter, mice were injected intravenously (i.v.) with photosensitizers at various doses. At various time after injection, mice were restrained in Plexiglas® holders and each tumor was illuminated with 135 J/cm^2 light from a dye laser 171 (spectra physics). The light dose rate was 75 mW/cm^2 as measured with a PTR Optics […]. The percentage of short term control (non-palpable tumors) was recorded daily. For our study 6 mice/group were used.
(§1) In vivo Biological Activity: The in vivo photosensitizing ability of all the sensitizers was compared with that of commercial BPD in DBA/2 mice bearing subcutaneously implanted SMT-F tumors, a method previously described by Dougherty et al. All photosensitizers, including commercial BPD (mixture of 21 and 22) were first dissolved in a minimum quantity of Tween 80 and then diluted with 0.9% saline, to a final concentration of 1% Tween 80.
(§2) It can be seen from Table 3 that commercial BPD was quite effective at a dose of 5.0 mg/kg, 3 h post i.v. injection (4 out of six mice were tumor free at day 30). […] However, replacement of the vinyl with a 1-hexyloxyethyl group induced a remarkable difference in photosensitizing activity.

[2] = Solubility of photosensitizers; format: physicochemical; conditions: Tween 80, then 0.9% saline (1% Tween 80)
Source text: as §1, §2

[3] = Electronic absorption, red absorption maximum; format: physicochemical; conditions: for red shift in the absorption spectra: electron-withdrawing groups on macrocycle; for strong absorption in the red: formyl-BPDs
Procedure: M.p.s were measured on a Thomas/Bristoline microscopic hot stage apparatus and were uncorrected. Silica gel 60 (70-230 and 230-400 mesh, Merck) or neutral alumina (Merck; usually Brockmann Grade III, i. e., deactivated with 6% water) were used for column chromatography. Preparative thin layer chromatography was carried out on 20×20 cm glass plates coated with Merck G 254 silica gel (1 mm thick). Analytical thin layer chromatography (TLC) was performed using merck 60 F254 silica gel (precoated sheets, 0.2 mm thick). Reactions were monitored by TLC and spectrophotometry and were carried out under nitrogen and in the dark. ^1 HNMR spectra were obtained in deuteriochloroform solution at 300 MHz using a General Electric QE300 spectrometer; chemical shifts are expressed in ppm relative to chloroform (7.258 ppm). Elemental analyses were performed at the Midwest Microlab, Ltd., Indiana, USA. Unless stated otherwise, electronic absorption spectra were measured in dichloromethane solution using a Hewlett-Packard 8450A spectrophotometer. Mass spectra were obtained at the Mass Spectrometry Facility, University of California, San Francisco and at the Department of Biophysics, Roswell Park Cancer Institute, Buffalo.

SMT-F tumor [4] = assay: In vivo antitumor (photodynamic) activity, SMT-F tumors in DBA/2 mice; design: species or system DBA/2 Ha-DD mouse; conditions: 5.0 mg/kg i.v., light 24 h after injection

| Compound | antitumor / photosensitizing activity (SMT-F tumor [1]) | in vivo photosensitizing efficacy / antitumor activity compared with BPD (SMT-F tumor [1]) | tumorcidal activity (SMT-F tumor [1]) | further results |
| --- | --- | --- | --- | --- |
| C=CC1=C(C)c2cc3[nH]c(cc4nc(cc5[nH]c(cc1n2)c(C)c5CCC(=O)OC)C(CCC(=O)OC)=C4C)C1(C)C3=CC=C(C(=O)OC)C1C(=O)OC (stereo not drawn) [Compound 36, 8-Vinylbenzoporphyrin Derivative] | activity similar to BPD | – | – | – |
| C=CC1=C(C)c2cc3[nH]c(cc4nc(cc5[nH]c(cc1n2)C1(C)C5=CC=C(C(=O)OC)C1C(=O)OC)C(C)=C4CCC(=O)OC)c(CCC(=O)OC)c3C (stereo not drawn) [Compound 28, 3-Vinylbenzoporphyrin Derivative] | activity similar to BPD | – | – | – |
| COC(=O)CCC1=C(C)c2cc3[nH]c(cc4nc(cc5[nH]c(cc1n2)c(CCC(=O)OC)c5C)C(C)=C4C(C)=O)C1(C)C3=CC=C(C(=O)OC)C1C(=O)OC (stereo not drawn) [Compound 42, 3 -Acetylbenzoporphyrin Derivative] | inactive | failed to improve their photosensitizing efficacy | – | ease of dissolution [2]: difficult to dissolve; red shift in the absorption spectra [3]: significant red shift in the absorption spectra |
| COC(=O)CCC1=C(C)c2cc3[nH]c(cc4nc(cc5[nH]c(cc1n2)c(CCC(=O)OC)c5C)C(C(C)=O)=C4C)C1=CC=C(C(=O)OC)C(C(=O)OC)C13C (stereo not drawn) [Compound 37, 8-Acetylbenzoporphyrin Derivative] | inactive | failed to improve their photosensitizing efficacy | – | ease of dissolution [2]: difficult to dissolve; red shift in the absorption spectra [3]: significant red shift in the absorption spectra |
| COC(=O)CCC1=C(C)c2cc3[nH]c(cc4nc(cc5[nH]c(cc1n2)c(CCC(=O)OC)c5C)C(C(C)=O)=C4C)C1=CC=C(C(=O)OC)C(C(=O)OC)C13C (stereo not drawn) [Compound 23, 8-Acetylbenzoporphyrin Derivative] | inactive | failed to improve their photosensitizing efficacy | did not show any significant tumorcidal activity | ease of dissolution [2]: difficult to dissolve; red shift in the absorption spectra [3]: significant red shift in the absorption spectra |
| COC(=O)CCC1=C(C)c2cc3[nH]c(cc4nc(cc5[nH]c(cc1n2)c(CCC(=O)OC)c5C)C(C=O)=C4C)C1=CC=C(C(=O)OC)C(C(=O)OC)C13C (stereo not drawn) [Compound 26, 8-Formylbenzoporphyrin Derivative] | – | – | did not show any significant tumorcidal activity | strong absorption in the red [3]: 696 nm |
| C=CC1=C(C)c2cc3[nH]c(cc4nc(cc5[nH]c(cc1n2)C1(C)C5=CC=C(C(=O)OC)C1C(=O)OC)C(C)=C4CCC(=O)OC)c(CCC(=O)OC)c3C (stereo not drawn) [Compound 41, 3-Vinyl-BPD] | activity similar to BPD | – | – | – |
| 3-(1-Hexyloxyethyl)benzoporphyrin Derivative [Compound 35] | active; also recorded: good antitumor activity | significantly more active than the industrially prepared benzoporphyrin derivative; also recorded: better photosensitizing efficacy than benzoporphyrin derivative monocarboxylic acid; also recorded: better anti-tumor activity than BPD-MA | – | Tumor response (nonpalpable tumor), 1-2 d (SMT-F tumor [1]): 6/6; Tumor response (nonpalpable tumor), 7 d (SMT-F tumor [1]): 6/6; Tumor response (nonpalpable tumor), 30 d (SMT-F tumor [1]): 2/6 |
| CCCCCCOC(C)C1=C(C)c2cc3[nH]c(cc4nc(cc5[nH]c(cc1n2)c(C)c5CCC(=O)OC)C(CCC(=O)OC)=C4C)C1(C)C3=CC=C(C(=O)OC)C1C(=O)OC (mixture of isomers) [Compound 27, 8-(1-Hexyloxyethyl)benzoporphyrin Derivative] | active; also recorded: good antitumor activity | significantly more active than the industrially prepared benzoporphyrin derivative; also recorded: better photosensitizing efficacy than benzoporphyrin derivative monocarboxylic acid; also recorded: better anti-tumor activity than BPD-MA | – | Tumor response (nonpalpable tumor), 1-2 d (SMT-F tumor [1]): 6/6; Tumor response (nonpalpable tumor), 7 d (SMT-F tumor [1]): 4/6; Tumor response (nonpalpable tumor), 30 d (SMT-F tumor [1]): 1/6; absorption maximum wavelength ([3]; maximum red absorption peak, Table 3): 676 nm |
| COC(=O)CCC1=C(C)c2cc3[nH]c(cc4nc(cc5[nH]c(cc1n2)c(CCC(=O)OC)c5C)C(C)=C4C(C)=O)C1(C)C3=CC=C(C(=O)OC)C1C(=O)OC (stereo not drawn) [Compound 31, 3 -Acetylbenzoporphyrin Derivative] | inactive | failed to improve their photosensitizing efficacy | did not show any significant tumorcidal activity | ease of dissolution [2]: difficult to dissolve; red shift in the absorption spectra [3]: significant red shift in the absorption spectra |
| COC(=O)CCC1=C(C)c2cc3[nH]c(cc4nc(cc5[nH]c(cc1n2)c(CCC(=O)OC)c5C)C(C=CC(C)C1=C(C)c2cc5[nH]c(cc6nc(cc7[nH]c(cc1n2)c(C)c7CCC(=O)OC)C(CCC(=O)OC)=C6C)C1(C)C5=CC=C(C(=O)OC)C1C(=O)OC)=C4C)C1=CC=C(C(=O)OC)C(C(=O)OC)C13C (mixture of isomers) [Compound 46, Bis-Benzoporphyrin] | – | – | did not show any significant tumorcidal activity | – |
| CCC1=C(C)c2cc3[nH]c(cc4nc(cc5[nH]c(cc1n2)C1(C)C5=CC=C(C(=O)OC)C1C(=O)OC)C(C)=C4CCC(=O)OC)c(CCC(=O)OC)c3C (stereo not drawn) [Compound 33, 2-Ethylbenzoporphyrin Derivative] | – | – | did not show any significant tumorcidal activity | – |
| COC(=O)CCC1=C(C)c2cc3[nH]c(cc4nc(cc5[nH]c(cc1n2)c(CCC(=O)OC)c5C)C(C)=C4C=O)C1(C)C3=CC=C(C(=O)OC)C1C(=O)OC (stereo not drawn) [Compound 34, 3-Formylbenzoporphyrin Derivative] | – | – | did not show any significant tumorcidal activity | strong absorption in the red [3]: 696 nm |
| 3-(1-Hexyloxyethyl)benzoporphyrin Derivative [Compound 45] | active | significantly more active than the industrially prepared benzoporphyrin derivative; also recorded: better photosensitizing efficacy than benzoporphyrin derivative monocarboxylic acid; also recorded: better anti-tumor activity than BPD-MA | – | Tumor response (nonpalpable tumor), 1-2 d (SMT-F tumor [1]): 6/6; Tumor response (nonpalpable tumor), 7 d (SMT-F tumor [1]): 4/6; Tumor response (nonpalpable tumor), 30 d (SMT-F tumor [1]): 0/6; Tumor response (nonpalpable tumor), 1-2 d (SMT-F tumor [4]; day 1-2): 6/6; Tumor response (nonpalpable tumor), 7 d (SMT-F tumor [4]; day 7): 6/6; Tumor response (nonpalpable tumor), 30 d (SMT-F tumor [4]; day 30): 0/6 |
| CCC1=C(C)c2cc3[nH]c(cc4nc(cc5[nH]c(cc1n2)c(C)c5CCC(=O)OC)C(CCC(=O)OC)=C4C)C1(C)C3=CC=C(C(=O)OC)C1C(=O)OC (stereo not drawn) [Compound 25, 8-Ethylbenzoporphyrin Derivative] | – | – | did not show any significant tumorcidal activity | – |
| C=CC1=C(C)c2cc3[nH]c(cc4nc(cc5[nH]c(cc1n2)c(C)c5CCC(=O)OC)C(CCC(=O)OC)=C4C)C1(C)C3=CC=C(C(=O)OC)C1C(=O)OC (stereo not drawn) [Compound 20, 8-vinylbenzoporphyrin Derivative] | activity similar to BPD | – | – | – |
